{"source": "patent US20040220270A1", "about": "“Methods and composition of treating glaucoma by modulating tyrosinase/L-DOPA pathway” (The Jackson Laboratory, priority 2003, published 2004)", "test_system": "Cyp1b1^−/− Tyr^c−2J/c−2J (albino) double mutants", "test": "L-DOPA supplementation via drinking water throughout ocular development; histologic and electron microscopic grading of angle dysgenesis", "format": "in vivo, mice", "settings": "for developmental abnormalities in the iridocorneal angle / severe angle dysgenesis (histology): L-DOPA 1 mg/ml in drinking water from gestation until harvest at approximately 4 weeks", "from_the_text": "Applicant hypothesized that tyrosinase might affect angle development through modulation of L-DOPA levels. Tyrosinase is a monooxygenase that converts tyrosine to L-DOPA and L-DOPA to dopaquinone. L-DOPA affects development and is the precursor of catecholamines, which are important developmental regulators (15-17). To investigate whether L-DOPA is a critical molecule in angle development, Applicant administered water containing L-DOPA or standard drinking water to Cyp1b1^-/- Tyr^c-2J/c-2J (albino) double mutants throughout ocular development [their mothers received this water throughout the period of in utero development (12)]. […] Despite the profound rescue in L-DOPA treated albino Cyp1b1^-/- mice, mild abnormalities of similar severity to those observed in pigmented Cyp1b1^-/- mice remained. […] These include genes that affect L-DOPA levels, affect the metabolism of L-DOPA to other developmentally important molecules or affect the signaling of these molecules in developmental/physiologic pathways. L-DOPA treatment-L-DOPA (dihydroxyphenylalanine, 15,431-8, Aldrich Chemical Company, Inc., Milwaukee, Wis.) was supplied to the animals via their drinking water at a concentration of 1 mg/ml (5, 6). L-DOPA was dissolved into acidic water (pH of 3) to avoid oxidation. Animals were either on L-DOPA for their entire gestation or started on L-DOPA at embryonic day E5.5 (prior to eye formation). Eyes were harvested at approximately 4 weeks of age and L-DOPA treatment was continued until the time of harvest. Freshly made L-DOPA water was supplied every three days. Histologic and electron microscopic analyses-Applicant fixed and processed eyes for plastic sectioning and electron microscopy as previously reported (1, 9). All tissues were harvested from mice at ages after angle formation. For light microscopy, eyes were […] sectioned and up to 56 sections were collected from each of 3 different ocular regions for all eyes. […] Collected regions included nasal lens periphery, central lens, and a region halfway between the lens center and the peripheral lens. Sections were stained with hematoxylin and eosin. Due to the potential for artifact in the delicate tissues analyzed abnormalities had to be present in multiple sections from the same region. Nine to twelve eyes were analyzed for each genotype on each genetic background. Applicant devised a grading scheme to allow comparison between different eyes. Applicant separately assessed the severity of defects affecting Schlemm's canal (SC), trabecular meshwork (TM) and creating synechiae. For each phenotype, Applicant graded 6 similarly spaced sections for each ocular region. Applicant graded the severity of abnormalities in both angles of a section. Thus, Applicant graded 36 angles (6 sections×2 angles×3 regions) from different ocular regions for each eye. Applicant designated a grade of 0, 1, 2, 3, or 4 (increasing in severity from 0 to 4, see below) to each phenotype for each angle. For an eye, the total grade could be any value between 0 and 144 (36 angles×4). […] To assess the difference in the severity of angle dysgenesis between the albino and pigmented eyes, Applicant graded approximately 10 eyes from mice of each Cyp1b1 and Foxc1 genotype. Due to the continuous nature of the grade, Applicant present the data as mean± SEM and compared genotypes using two tailed student t-tests. Applicant checked the consistency of the grading method by assessing 8 random eyes on a second occasion without knowledge of the initial grade. […]", "note": "“Also recorded” adds a separate entry of the source.", "data": [{"smiles": "N[C@@H](Cc1ccc(O)c(O)c1)C(=O)O", "note": "[L-DOPA, 3,4-dihydroxyphenylalanine]", "values": [{"measurement": "developmental abnormalities in the iridocorneal angle / severe angle dysgenesis (histology)", "setting": "Cyp1b1^−/− Tyr^c−2J/c−2J mice, B6 background, versus untreated", "result": "alleviated; also recorded: prevent the severe angle dysgenesis"}, {"measurement": "developmental abnormalities in the iridocorneal angle / severe angle dysgenesis (histology)", "setting": "Cyp1b1^−/− Tyr^c−2J/c−2J mice, B6 background, versus untreated, listed as LDOPA", "result": "substantially prevented developmental abnormalities"}, {"measurement": "ultrastructure of the trabecular meshwork (electron micrographs)", "setting": "Cyp1b1^−/− Tyr^c−2J/c−2J mice, B6 background, L-DOPA 1 mg/ml in drinking water, versus untreated", "result": "rescues the ultrastructure of the trabecular meshwork"}, {"measurement": "mean severity grades of developmental dysgenesis (Schlemm's canal, trabecular meshwork, synechiae)", "setting": "Cyp1b1^−/− Tyr^c−2J/c−2J mice, L-DOPA 1 mg/ml in drinking water, grade 0-144 per eye, p<0.001 for all assessed phenotypes versus untreated", "result": "can be alleviated"}, {"measurement": "abnormalities remaining after L-DOPA treatment", "setting": "L-DOPA treated albino Cyp1b1^−/− mice, compared with pigmented Cyp1b1^−/− mice", "result": "mild abnormalities of similar severity to those observed in pigmented Cyp1b1^−/− mice remained"}]}]}
